Here are results for 22 molecules from patent US7435744B2, “Piperidine derivatives as NMDA receptor antagonists” (Gedeon Richter Vegyeszeti Gyar RT, priority 2001, dated 2008).

Structures are written as SMILES. Like-named read-outs stand apart in the source and are kept apart here.

Test [1] concerns the target T1, NMDA receptors (NR2B subunit containing) (Rattus norvegicus, UniProt P35439+Q00960).
T1 construct: endogenous in cells; host or cells: primary neocortical neurons from 17 day old Charles River rat embryos, 4-7 days in vitro
Kind of test: Functional NMDA antagonist potency: intracellular calcium measurement in primary cultures of rat cortical neurons (fluorimeter plate reader). Format: cell-based. The text has this: Assessing the Functional NMDA Antagonist Potency of Compounds in Primary Cultures of Rat Cortical Neurons Based on Measuring the Intracellular Calcium Concentration Using a Fluorimeter Plate Reader
It is known that during postnatal development the subunit composition of neuronal NMDA receptors is changing. […] According to data in the literature and to our own immunocytochemical examinations neuronal cells cultured for 4-7 days in vitro predominantly express the NR2B subunit, together with NR1 subunit. Therefore, functional test of NMDA antagonism in these cells reflects mainly an action on NR2B subunit containing receptors. Since NMDA receptors are known to be permeable to calcium ions upon excitation, the extent of NMDA receptor activation, and its inhibition by functional antagonists can be characterised by measuring the rise in the intracellular calcium concentration following agonist (NMDA) application onto the cells. Since there is very high sequence homology between rat and human NMDA receptors (99, 95, 97% for NR1, NR2A, and NR2B subunits, respectively), it is believed that there is little, if any, difference in their pharmacological sensitivity.
In: Protocols for Neural Cell Culture, eds: Fedoroff, S.; Richardson A., The Humana Press Inc., 13-38.] After isolation, the cells are plated onto standard 96-well microplates and the cultures are maintained in an atmosphere of 95% air-5% CO2 at 37° C. until testing.
The cultures are used for the intracellular calcium measurements after 4-7 days in vitro. […] Loading is stopped by washing twice with the solution used also during the measurement (140 mM NaCl, 5 mM KCl, 2 mM CaCl2, 5 mM HEPES [4-(2-hydroxyethyl)-1-piperazineethane-sulfonic acid], 5 mM HEPES-Na, 20 mM glucose, 10 μM glycine, pH=7.4). Then the test compound dissolved in the above solution (90 μl/well) is added. Intracellular calcium measurements are carried out with a plate reader fluorimeter. A rise is induced by application of 40 μM NMDA in Fluo-4-fluorescence that reflects the intracellular calcium concentration. Inhibitory potency of the test compound is assessed by measuring the reduction in the calcium elevation in the presence of different concentrations of the compound. After the measurement, a standard calibration procedure [Meth. Cell.
Inhibitory potency of a compound at a single concentration point is expressed as percent inhibition of the control NMDA response. Sigmoidal concentration-inhibition curves are fitted over the data and IC50 values are defined as the concentration that produces half of the maximal inhibition that could be achieved with the compound. Mean IC50 values are derived from at least three independent experiments.
(§1) wherein for NMDA IC50—IC50 is determined by the intracellular Ca^2+-concentartion assay on cortical neurons; and for Ro-binding IC50—IC50 is determined by the [^3H]-Ro 25,6981 binding assay on rat cerebral membranes.

A further test concerns the target T2, NR2B subunit (Rattus norvegicus, UniProt P35439+Q00960).
T2 construct: from tissue; host or cells: forebrain membranes of male Wistar rats
Kind of test: [3H]-Ro 25,6981 binding assay on rat cerebral membranes. On the procedure: Determining Binding of Compounds to NR2B Subunit by [^3H]-Ro 25,6981 Binding Assay
Briefly, membranes are isolated from the forebrain of male Wistar rats. They are incubated in the presence and absence of test compound for 2 hours at room temperature. […] The applied radioligand (^3H-Ro-25,6981) concentration is 4 nM.
as §1

A further test deals with NMRI mice. Kind of test: Mouse formalin test (second phase) for in vivo efficacy. The settings on record: p.o. 15 min before formalin, licking time 20 to 25 min after formalin, >20 = inhibition less than 50% at 20 mg/kg p.o.; for ED50: po. The protocol: Mouse Formalin Test for Measurement of In Vivo Efficacy
Injection of diluted formalin into the hind paw of rats or mouse is known to elicit a biphasic pain related behaviour measured as time spent by licking/biting of the injured paw. The second phase is generally defined as pain related events detected in the 15-60 min. time interval after formalin injection. It is known that NMDA receptors are involved in the second phase of response to formalin injection and this behavioural response is sensitive to blockade of NMDA receptors [Dickenson, A. and Besson J.-M. (Eds.): Chapter 1, pp. 6-7: Animal models of Analgesia; and Chapter 8, pp. 180-183: Mechanism of Central Hypersensitivity: Excitatory Amino Acid Mechanisms and Their Control—In Pharmacology of Pain. Springer-Verlag (Berlin) 1997.] Therefore, we performed the second phase of formalin test to characterise the efficacy of compounds in vivo. Inhibition of the second phase of response is considered to indicate an analgesic effect against chemically-induced persistent pain [Hunskaar, S., et al.: Formalin Test in Mice, a Useful Technique for Evaluating Mild Analgesics, Journal of Neuroscience Methods, 14 (1985) 69-76.] Male albino Charles River NMRI mice (20-25 g) were used. Prior to the experiment any solid food was withdrawn for 16 hours but the animals had free access to 20% glucose solution. The animals were allowed a 1 hour acclimatisation period spent in a glass cylinder (cc. 15 cm in diameter), then moved to an identical cylinder with a mirror placed behind to facilitate observation. The test substances were suspended in 5% tween-80 (10 ml per kg body weight). and administered orally by gavage 15 min before the formalin injection (20 μl of 1% formalin in 0.9% saline injected subcutaneously into the dorsal surface of the right hindpaw). The time spent by licking and biting of the injected paw was measured from 20 to 25 min. after the formalin injection.

[2] abbreviates: rat cortical neurons 4-7 days in vitro, 40 μM NMDA, Fluo-4 intracellular Ca2+, read-out: NMDA IC50.
Where [3] appears, read: rat forebrain membranes, 4 nM [3H]-Ro 25,6981, 2 hours at room temperature, read-out: Ro-binding IC50.

T2 sequence (Q00960 27-1482, other chains not shown): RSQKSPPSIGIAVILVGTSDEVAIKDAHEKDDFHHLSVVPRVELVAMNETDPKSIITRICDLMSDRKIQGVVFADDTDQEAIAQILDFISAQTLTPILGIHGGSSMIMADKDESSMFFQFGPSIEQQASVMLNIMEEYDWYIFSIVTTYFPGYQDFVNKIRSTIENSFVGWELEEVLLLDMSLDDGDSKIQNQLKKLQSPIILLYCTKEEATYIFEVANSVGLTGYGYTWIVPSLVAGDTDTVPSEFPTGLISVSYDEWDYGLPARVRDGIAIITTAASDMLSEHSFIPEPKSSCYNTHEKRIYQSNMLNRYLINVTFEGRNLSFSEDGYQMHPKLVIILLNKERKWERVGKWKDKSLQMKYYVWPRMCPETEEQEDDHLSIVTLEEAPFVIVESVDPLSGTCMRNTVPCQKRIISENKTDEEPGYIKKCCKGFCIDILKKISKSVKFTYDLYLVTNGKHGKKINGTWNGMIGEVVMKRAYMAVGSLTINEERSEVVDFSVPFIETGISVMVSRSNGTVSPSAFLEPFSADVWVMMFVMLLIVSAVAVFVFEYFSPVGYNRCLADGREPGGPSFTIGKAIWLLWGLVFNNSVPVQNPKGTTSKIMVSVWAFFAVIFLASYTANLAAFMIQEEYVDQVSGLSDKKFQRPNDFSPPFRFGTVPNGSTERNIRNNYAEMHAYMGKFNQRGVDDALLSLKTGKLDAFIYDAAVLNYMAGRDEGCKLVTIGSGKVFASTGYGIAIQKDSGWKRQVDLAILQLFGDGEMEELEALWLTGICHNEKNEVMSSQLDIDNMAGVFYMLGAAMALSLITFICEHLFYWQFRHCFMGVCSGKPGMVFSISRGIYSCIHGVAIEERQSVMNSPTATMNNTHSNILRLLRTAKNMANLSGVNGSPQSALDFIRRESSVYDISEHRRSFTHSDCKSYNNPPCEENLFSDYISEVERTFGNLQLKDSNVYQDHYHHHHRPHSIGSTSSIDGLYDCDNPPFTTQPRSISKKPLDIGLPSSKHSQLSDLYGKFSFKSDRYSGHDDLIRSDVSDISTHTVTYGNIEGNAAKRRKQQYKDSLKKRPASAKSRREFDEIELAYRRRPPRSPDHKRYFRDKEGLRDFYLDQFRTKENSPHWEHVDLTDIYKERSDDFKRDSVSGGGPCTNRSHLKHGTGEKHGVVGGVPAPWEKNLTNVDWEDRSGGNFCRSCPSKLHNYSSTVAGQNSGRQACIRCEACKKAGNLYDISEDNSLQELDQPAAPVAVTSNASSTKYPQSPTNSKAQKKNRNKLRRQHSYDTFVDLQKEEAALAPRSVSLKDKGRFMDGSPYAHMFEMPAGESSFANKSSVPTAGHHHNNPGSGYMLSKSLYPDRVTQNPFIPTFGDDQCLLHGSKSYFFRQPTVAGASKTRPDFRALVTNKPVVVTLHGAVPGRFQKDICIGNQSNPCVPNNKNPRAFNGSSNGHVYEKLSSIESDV
T1 sequence (Q00960 27-1482, other chains not shown): as above

One may read the IC50 as the concentration that gives 50% inhibition. As a reminder, the ED50 is the dose that gives a 50% effect, or the effect in half of the subjects. A higher ED50 goes with a need for a large dose. Take `O=c1[nH]c2ccc([S+]([O-])CCN3CCC(Cc4ccc(F)cc4)CC3)cc2o1` (centres unmarked) [CI-1041, 6-{2-[4-(4-fluoro-benzyl)-piperidin-1-yl]-ethanesulfinyl}-3H-benzooxazol-2-one, reference compound]: the IC50 was found to be 6.6 nM in test [1] and 4 nM at NR2B subunit. The ED50 in the test on NMRI mice worked out at 5.3 mg/kg.
Molecule `C[C@@H]([C@@H](O)c1ccc(O)cc1)N1CCC(O)(c2ccccc2)CC1` [CP 101,606, (1S,2S)-1-(4-hydroxyphenyl)-2-(4-hydroxy-4-phenylpiperidine-1-yl)-1-propanol, reference compound] yielded an ED50 in the test with NMRI mice of over 20 mg/kg.
Regarding `Cc1ccc(CC2(O)CCN(CCOc3ccc(O)cc3)CC2)cc1` [Co-101244, 1-[2-(4-hydroxyphenoxy)ethyl]-4-hydroxy-4-(4-methylbenzyl)piperidine, reference compound], the IC50 in test [1] (setting [2]) came out at 23 nM; at NR2B subunit (setting [3]), 3.3 nM. This molecule returned an ED50 with NMRI mice of over 20 mg/kg.
Regarding `Oc1ccc(OCCN2CCC(Cc3ccc(F)cc3)CC2)cc1` [Co-111103, 1-[2-(4-hydroxyphenoxy)ethyl]-4-(4-fluorobenzyl)piperidine, reference compound], the IC50 at NR2B subunit (setting [3]) came to 8.4 nM. In addition, the ED50 in the test with NMRI mice is over 20 mg/kg.
As to `O=C(CCN1CCC(Cc2ccc(F)cc2)CC1)c1ccc2[nH]c(=O)oc2c1` [EMD 95885, reference compound], the IC50 in test [1] (setting [2]) was determined as 35 nM; at NR2B subunit (setting [3]) it was 7.2 nM. Besides, the “ED50 (mg/kg p.o.)” value in the test on NMRI mice is given as 5.9 mg/kg.
Regarding `O=C1Cc2cc(NC(=O)C(=O)N3CCC(Cc4ccc(F)cc4)CC3)ccc2N1` [Example 1, 2-[4-(4-Fluoro-benzyl)-piperidin-1-yl]-2-oxo-N-(2-oxo-2,3-dihydro-1H-indol-5-yl)-acetamide], the ED50 in the test with NMRI mice turned out to be 0.46 mg/kg.
As to `O=C(Nc1ccc2[nH]c(=O)[nH]c2c1)C(=O)N1CCC(Cc2ccc(F)cc2)CC1` [Example 2, 2-[4-(4-Fluoro-benzyl)-piperidin-1-yl]-2-oxo-N-(2-oxo-2,3-dihydro-1H-benzimidazol-5-yl)-acetamide], the IC50 in test [1] (setting [2]) was 0.7 nM; at NR2B subunit (setting [3]), 4.7 nM.
In the case of `O=C(Nc1ccc2oc(=O)[nH]c2c1)C(=O)N1CCC(Cc2ccc(F)cc2)CC1` [Example 4, 2-[4-(4-Fluoro-benzyl)-piperidin-1-yl]-2-oxo-N-(2-oxo-2,3-dihydro-benzoxazol-5-yl)-acetamide], the IC50 in test [1] (setting [2]) was 4710 nM; on NR2B subunit (setting [3]), over 30000 nM.
For `O=C(Nc1ccc2[nH]c(=O)[nH]c2c1)C(=O)N1CCC(Cc2ccccc2)CC1` [Example 7, 2-(4-Benzyl-piperidin-1-yl)-2-oxo-N-(2-oxo-2,3-dihydro-1H-benzimidazol-5-yl)-acetamide] the same measures were 1.4 nM and 4.4 nM.
Taken in the same sequence, the figures for `O=C(Nc1ccc2[nH]c(=O)oc2c1)C(=O)N1CCC(Cc2ccccc2)CC1` [Example 8, 2-(4-Benzyl-piperidin-1-yl)-2-oxo-N-(2-oxo-2,3-dihydro-benzoxazol-6-yl)-acetamide] were 2.4 nM and 5.5 nM.
For `CS(=O)(=O)Nc1cccc(NC(=O)C(=O)N2CCC(Cc3ccccc3)CC2)c1` [Example 12, 2-(4-Benzyl-piperidin-1-yl)-N-(3-methanesulfonylamino-phenyl)-2-oxo-acetamide] the same measures were 1010 nM and 614 nM.
For the molecule `O=C1COc2cc(NC(=O)C(=O)N3CCC(Cc4ccccc4)CC3)ccc2N1` [Example 24, 2-(4-Benzyl-piperidin-1-yl)-2-oxo-N-(3-oxo-3,4-dihydro-2H-benzo [1,4]oxazin-7-yl)-acetamide], the IC50 in test [1] (setting [2]) is 113 nM; at NR2B subunit (setting [3]) it was 214 nM.
For `O=C(Nc1ccc2[nH]c(=O)oc2c1)C(=O)N1CCC(Oc2ccc(Cl)cc2)CC1` [Example 31, 2-[4-(4-Chloro-phenoxy)-piperidin-1-yl]-2-oxo-N-(2-oxo-2,3-dihydro-benzoxazol-6-yl)-acetamide], the ED50 in the test with NMRI mice came to 4.4 mg/kg.
In turn, `Cc1ccc(CC2CCN(C(=O)C(=O)Nc3ccc4c(c3)CC(=O)N4)CC2)cc1` [Example 101, 2-[4-[4-Methyl-benzyl)-piperidin-1-yl]-2-oxo-N-(2-oxo-2,3-dihydro-1H-indol-5-yl)-acetamide] returned an ED50 in the test on NMRI mice of 0.48 mg/kg.
On to `O=C(CN1CCC(Cc2ccccc2)CC1)Nc1ccc2c(c1)CC(=O)N2` [Example 143, 2-(4-Benzyl-piperidin-1-yl)-N-(2-oxo-2,3-dihydro-1H-indol-5-yl)-acetamide], for which the IC50 was 164 nM in test [1] (setting [2]) and 29 nM on NR2B subunit (setting [3]).
For `O=C(CN1CCC(Cc2ccccc2)CC1)Nc1ccc2[nH]c(=O)oc2c1` [Example 146, 2-(4-Benzyl-piperidin-1-yl)-N-(2-oxo-2,3-dihydro-benzoxazol-6-yl)-acetamide] the same measures were 6 nM and 1.7 nM.
For `O=C(CN1CCC(Cc2ccccc2)CC1)Nc1ccc2[nH]ncc2c1` [Example 147, 2-(4-Benzyl-piperidin-1-yl)-N-(1H-indazol-5-yl)-acetamide] the same measures were 1330 nM and 121 nM.
As to `CC(C(=O)Nc1ccc2[nH]c(=O)oc2c1)N1CCC(Cc2ccccc2)CC1` (centres unmarked) [Example 161, 2-(4-Benzyl-piperidin-1-yl)-N-(2-oxo-2,3-dihydro-1H-benzoxazol-6-yl)-propionamide], the ED50 in the test with NMRI mice came out at 2.4 mg/kg.
Molecule `O=C(CN1CCC(Cc2ccccc2)CC1)Nc1ccc(O)cc1` [Example 192, 2-(4-Benzyl-piperidin-1-yl)-N-(4-hydroxy-phenyl)-acetamide] registered an ED50 in the test on NMRI mice of 17 mg/kg. Compared with the last molecule, the ED50 is about 7.1-fold higher.
Take `O=C(CNc1ccc2[nH]c(=O)[nH]c2c1)N1CCC(Cc2ccc(F)cc2)CC1` [Example 197, 5-{2-[4-(4-Fluoro-benzyl)-piperidin-1-yl]-2-oxo-ethylamino}-1,3-dihydro-benzoimidazol-2-one]: the half-maximal inhibitory concentration (IC50) in test [1] (setting [2]) came to 48 nM; on NR2B subunit (setting [3]) it was 91 nM.
Turning to `O=C(CNc1ccc2[nH]ncc2c1)N1CCC(Cc2ccc(F)cc2)CC1` [Example 199, 1-[4-(4-Fluoro-benzyl)-piperidin-1-yl]-2-(1H-indazol-5-yl-amino)-ethanone], the IC50 in test [1] (setting [2]) stood at 533 nM; on NR2B subunit (setting [3]), 972 nM.
Regarding `C[C@@H](CN1CCC(Cc2ccccc2)CC1)[C@@H](O)c1ccc(O)cc1` [Ro 25.6981, R—(R*,S*)-1-(4-hydroxyphenyl)-2-methyl-3-[4-(phenylmethyl)piperidin-1-yl]-1-propanol, reference compound], the IC50 at NR2B subunit turned out to be 5.9 nM. In the test with NMRI mice, this molecule showed an ED50 of over 20 mg/kg.
